Literature values, collected in patent US12648940B2, “Bupivacaine liquid formulations” (FRESENIUS KABI AUSTRIA GMBH, priority 2023, dated 2026).

In the case of `CCCCN1CCCCC1C(=O)Nc1c(C)cccc1C` (centres unmarked) [Bupivacaine, 1-butyl-N-(2,6-dimethylphenyl)piperidine-2-carboxamide], the pKa is listed as “approximately 8.1” and the “pKa of the amine of the piperidine group” value (at 25° C.) is listed as ~8.1.
